Experimental data from ChEMBL document CHEMBL1759988, “Isatin-β-thiosemicarbazones as potent herpes simplex virus inhibitors” (Bioorg Med Chem Lett, 2011).

Experiments:
[1] = Cytotoxicity against human RD cells; format: cell-based
[2] = tested on: Human alphaherpesvirus 1; experiment: Antiviral activity against HSV1 by plaque reduction assay; format: functional, organism-based
[3] = tested on: Human alphaherpesvirus 2; experiment: Antiviral activity against HSV2 by plaque reduction assay; format: functional, organism-based

| Structure (SMILES) | CC50 [1] [µM] | IC50 [2] [µM] | IC50 [3] [µM] |
| --- | --- | --- | --- |
| O=C1Nc2ccccc2/C1=N/NC(=S)Nc1ccccc1 | > 25 | 2.97 | > 25 |
| Cc1ccccc1NC(=S)N/N=C1\C(=O)Nc2ccccc21 | > 25 | > 25 | > 25 |
| Cc1cccc(NC(=S)NNC2=c3ccccc3=NC2=O)c1 | > 25 | 3.84 | > 25 |
| Cc1ccc(NC(=S)N/N=C2\C(=O)Nc3ccccc32)cc1 | > 25 | > 25 | > 25 |
| COc1ccccc1NC(=S)N/N=C1\C(=O)Nc2ccccc21 | > 25 | > 25 | > 25 |
| COc1cccc(NC(=S)N/N=C2\C(=O)Nc3ccccc32)c1 | > 25 | 2.64 | > 25 |
| O=C1Nc2ccccc2/C1=N/NC(=S)Nc1ccc(F)cc1 | > 25 | > 25 | > 25 |
| O=C1Nc2ccccc2/C1=N/NC(=S)Nc1ccccc1Cl | > 25 | > 25 | > 25 |
| O=C1Nc2ccccc2/C1=N/NC(=S)Nc1cccc(Cl)c1 | > 25 | > 25 | > 25 |
| O=C1Nc2ccccc2/C1=N/NC(=S)Nc1ccc(Cl)cc1 | > 25 | 2.69 | > 25 |
| O=C1Nc2ccccc2/C1=N/NC(=S)Nc1ccc(Br)cc1 | > 25 | 3.29 | > 25 |
| O=C1Nc2ccccc2/C1=N/NC(=S)Nc1ccc(-n2cccn2)cc1 | > 25 | 6.21 | > 25 |
| O=C1Nc2ccccc2/C1=N/NC(=S)Nc1ccc(N2CCOCC2)cc1 | > 25 | > 25 | > 25 |
| O=C(N/N=C1\C(=O)Nc2ccccc21)Nc1ccccc1 | > 25 | > 25 | > 25 |
| Cc1cccc(NC(=O)N/N=C2\C(=O)Nc3ccccc32)c1 | > 25 | > 25 | > 25 |
| Cc1ccc(NC(=O)N/N=C2\C(=O)Nc3ccccc32)cc1 | > 25 | > 25 | > 25 |
| COc1cccc(NC(=O)N/N=C2\C(=O)Nc3ccccc32)c1 | > 25 | > 25 | > 25 |
| O=C1Nc2ccc(Cl)cc2/C1=N/NC(=S)Nc1ccccc1 | > 25 | > 25 | > 25 |
| O=C1Nc2ccc(Br)cc2/C1=N/NC(=S)Nc1ccccc1 | > 25 | > 25 | > 25 |

| Structure (SMILES) | CC50 [1] [µM] | IC50 [2] [µM] | IC50 [3] [µM] |
| --- | --- | --- | --- |
| COc1ccc2c(c1)/C(=N/NC(=S)Nc1ccccc1)C(=O)N2 | > 25 | 5.01 | > 25 |
| CN1C(=O)/C(=N\NC(=S)Nc2ccccc2)c2ccccc21 | > 25 | > 25 | > 25 |
| CCN1C(=O)/C(=N\NC(=S)Nc2ccccc2)c2ccccc21 | > 25 | > 25 | > 25 |
| O=C1/C(=N\NC(=S)Nc2ccccc2)c2ccccc2N1c1ccccc1 | > 25 | > 25 | > 25 |
| O=C1/C(=N\NC(=S)Nc2ccccc2)c2ccccc2N1Cc1ccccc1 | > 25 | > 25 | > 25 |
| CCN(CC)C(=S)N/N=C1\C(=O)Nc2ccccc21 | > 25 | > 25 | 1.54 |
| O=C1Nc2ccccc2/C1=N/NC(=S)N1CCCC1 | > 25 | > 25 | 5.8 |
| O=C1Nc2ccccc2/C1=N/NC(=S)N1CCCCC1 | > 25 | > 25 | 3.14 |
| CNC(=S)N/N=C1\C(=O)Nc2ccccc21 | > 25 | > 25 | > 25 |
| CCNC(=S)N/N=C1\C(=O)Nc2ccccc21 | > 25 | > 25 | > 25 |
| CCCNC(=S)N/N=C1\C(=O)Nc2ccccc21 | > 25 | > 25 | > 25 |
| O=C1Nc2ccc(F)cc2/C1=N/NC(=S)Nc1ccccc1 | > 25 | > 25 | > 25 |
| O=C1Nc2ccc(OC(F)(F)F)cc2/C1=N/NC(=S)Nc1ccccc1 | > 25 | 5.9 | > 25 |
| COc1ccc(NC(=S)NNC2=c3ccccc3=NC2=O)cc1 | > 25 | 2.2 | > 25 |
| Cc1ccc2c(c1)/C(=N/NC(=S)Nc1ccccc1)C(=O)N2 | > 25 | > 25 | > 25 |
| O=C1Nc2ccccc2/C1=N/NC(=S)N1CCOCC1 | > 25 | 1.3 | 2.74 |
| CN(C)C(=S)N/N=C1/C(=O)Nc2ccccc21 | > 25 | > 25 | > 25 |
| CCCN(CCC)C(=S)N/N=C1/C(=O)Nc2ccccc21 | > 25 | > 25 | > 25 |
| Nc1nc2c(ncn2COCCO)c(=O)[nH]1 [ACYCLOVIR] | > 25 | 0.3 | 1.27 |
